Experimental data taken from PMC8467576, “Novel Ubiquitin Specific Protease-13 Inhibitors Alleviate Neurodegenerative Pathology” (Metabolites, 2021).
Values joined by “and” are separate entries in the source; they are usually repeats but may differ in a detail not shown here. Identical values can stand only once. Like-named read-outs stand apart in the source and are kept apart here.

What was measured:
[1] = Pharmacokinetics in wild type C57BL6 mice (brain and serum, UHPLC-MS/MS); type: in vivo; settings: C57BL/6, mouse, ip, 10 mg/kg I.P.; for AUC: over 12 h; for half-life: read-out: T1/2 (elimination) (converted)
Method: Wild type C57BL6 mice were injected with 10 mg/kg BK50118-C versus DMSO, and the brain and serum were isolated at 0, 1, 2, 4, 6, 8 and 12 h; extracted in water and examined by mass spectrometry. […] Elimination (T1/2) was 2.32 h for brain and 1.84 h in serum.
C57BL/6 mice received a single intraperitoneal dose (10 mg/kg) of BK50118-C. Brain and serum samples were collected at 1, 2, 3, 4, 8 and 12 h (n = 3 per time point). Animals injected with vehicle (DMSO) were used for background subtraction. Stock solution of the drug (1 mg/mL) and internal standards were prepared in methanol. Intermediate solutions used for the calibrators and control samples were serial-diluted in methanol/water (1:1). Preparation of the calibration curve standards and quality samples (QC) were performed by mixing the intermediate dilutions in blank samples (brain homogenates, serum). The internal standard working solution contained deuterium labeled BK50118-C-d7 at the concentration of 5 ng/mL diluted in acetonitrile (ACN)/ethyl acetate (4:1). Serum and brain samples were stored at −80 °C and then thawed to room temperature prior to preparation. The brains were homogenized in MilliQ water (1 mg brain: 10 µL water). Proteins were precipitated in both brain and serum samples by mixing 25 µL aqueous sample with 75 µL internal standard working solution. The mixture was centrifuged at 12,300× g for 5 min. Thereafter, 75 µL of each supernatant and 25 µL of MilliQ water were pipetted into a 96-well PCR plate (Fisher Scientific, Dawsonville, GA, USA).
The concentrations of BK50118-C in the brain tissue and serum samples were measured by ultrahigh performance liquid chromatography tandem mass spectrometry (UHPLC-MS/MS). Briefly, the UHPLC-MS/MS system included an Elute HTG binary gradient UHPLC pump, an Elute column oven and an EVOQ Elite triple quadrupole mass spectrometer (all from Bruker Daltonik GmbH, Bremen, Germany) equipped with an electrospray ionization (ESI) source operating in a positive mode. The samples were injected by use of a PAL auto sampler (CTC Analytics, Zwingen, Switzerland) equipped with a 10-µL sample loop; the samples were kept in a PAL stack cooler for 6 microtiter plates and operating at +6 °C. The system was controlled by a Compass 2.0/HyStar 4.0 software (Bruker); the compound screening and quantitation was performed by a TASQ 2.2 data acquisition and processing software (Bruker). The mass spectrometer was supplied by nitrogen and air generated by a Genius 3045 nitrogen/air generator (Peak Scientific Instruments, Inchinnan, Scotland, UK). The ESI parameters were as follows: probe gas flow 50, nebulizer gas flow 60, probe temperature +400 °C, cone gas flow 20, cone temperature +350 °C, CID gas Ar 1.5 mTorr. The mass spectra were scanned in the MRM mode to find the optimal collision energies for the test compounds and their respective precursor ions.
For chromatographic separation, an YMC-Ultra HT Hydrosphere C18 column (2.0 × 100 mm, 2 µm particle size) and an YMC-Hydrosphere 2.1 × 5 mm guard column (YMC Co. Ltd., Kyoto, Japan) were used. The mobile phase A was 10 mM ammonium formate, pH 4.3, in water; the mobile phase B was 10 mM ammonium formate, pH 4.3, in 10% water, 50% acetonitrile and 40% isopropyl alcohol. The mobile phase gradient was as follows (min—A/B%): 0 min—50/50, 0.5 min—50/50, 2.0 min—20/80, 3 min—20/80, 3.1 min—50/50, 4.5 min—50/50. The flow rate was 450 µL/min, and the column temperature was set at 50 °C. The sample injection volume was 10 µL.

[2] = tested on: human alpha-synuclein; assay: Alpha-synuclein levels in TgA53T mice (WB, ELISA, DAB staining); type: in vivo, mouse; settings: vs DMSO; for reduction of number of human alpha-synuclein positive neurons: 40 mg/Kg I.P. daily for 7 days
Method: Male and female TgA53T mice (15 months old) were treated daily with intraperitoneal injection of DMSO versus 10 mg/kg or 40 mg/kg BK50118-C for 7 days. […] ELISA measurement of alpha-synuclein in the same extracts (Figure 4C) confirmed that human alpha-synuclein was reduced by about 30% (10 mg/kg) and 56% (40 mg/kg), respectively (Figure 4C).
BK50118-C is one of novel small molecule inhibitors of USP13 synthesized in our laboratory. For BK50118-C treatment, approximately 15 months old (±1 month) male and female TgA53T mice were treated with intraperitoneal injection of vehicle (DMSO) or BK50118-C at the daily dosage of 10 mg/Kg or 40 mg/Kg for 7 days. Animals were age and sex-matched in their respective treatment cohorts. All animals were sacrificed after treatment. All experiments were conducted in full compliance with the recommendations of Georgetown University Animal Care and Use Committee. These experiments were conducted under animal protocol No. 2016-1194 titled, Misfolded Protein Clearance in Neurodegeneration, which was approved by the Georgetown University IACUC. Protocol Information: IACUC Protocol Number: 2016-1194. Protocol Approval Date: 14 September 2020 Expiration Date: 14 September 2023.
To extract the soluble proteins from mouse midbrain lysates, tissues were isolated and homogenized in 1x STEN buffer (50 mM Tris (pH 7.6), 150 mM NaCl, 2 mM EDTA, 0.2% NP-40, 0.2% BSA, 20 mMPMSF and protease cocktail inhibitor), centrifuged at 10,000× g for 20 min at 4 °C, and the supernatant containing the soluble protein fraction was collected. Extracts were analyzed by Western blot (WB) on 4–12% SDS NuPAGE Bis-Tris gel (Invitrogen, NP0301BOX). Beta-actin (β-actin) was probed (1:3000) with monoclonal antibody (Emdmillipore, MAB1501R, Burlington, MA, USA). Human alpha-synuclein was probed (1:2000) with monoclonal antibody (Thermo Fisher, AHB0261, Rockford, IL, USA). USP13 was probed (1:1000) with polyclonal antibody (ThermoFisher, PA5-12014, Rockford, IL, USA). Ubiquitin was probed (1:5000) with polyclonal antibody (Thermo Fisher, PA3-16717, Rockford, IL, USA). WBs were quantified by densitometry using Quantity One 4.6.3 software (Bio Rad, Hercules, CA, USA) and Image J.
The ELISA for USP13 (MyBioSource, Cat # MBS9335287, San Diego, CA, USA), Human alpha-synuclein (Biolegend, Cat # 844101, San Diego, CA, USA) and specific p-Tau ser396 (Invitrogen, KHB7031, Waltham, MA, USA) were performed on cell or brain tissue extracts as described above according to manufacturers’ protocol.
DAB staining was performed for alpha-synuclein (Thermo Fisher, AHB0261, Rockford, IL, USA) on the 20 µm thick mouse brain sections, and stereological counting of alpha-synuclein+ neurons counterstained with Nissl was conducted.

Kp ([1]; brain and serum, read-out: Ratio of Serum/Brain): 0.28
Cmax ([1]; brain): 81.5 nM and 20.6 ng/mL
Tmax ([1]; brain): 1 h
AUC ([1]; brain): 0.164 ± 0.0395 µM·h
half-life ([1]; brain): 2.32 h
Cmax ([1]; serum): 89.7 ng/mL and 355 nM
Tmax ([1]; serum): 1 h
AUC ([1]; serum): 0.599 ± 0.143 µM·h
half-life ([1]; serum): 1.84 h
SMILES: Fc1ccc2nccc(OCc3ccccc3)c2c1 [BK50118-C, 4-benzyloxy-6-fluoroquinoline]
reduction of human alpha-synuclein in midbrain extracts (ELISA) ([2]; 10 mg/kg I.P. daily for 7 days): about 30%
human alpha-synuclein in midbrain lysates (WB) ([2]; 10 mg/kg or 40 mg/kg I.P. daily for 7 days): significantly reduced
reduction of human alpha-synuclein in midbrain extracts (ELISA) ([2]; 40 mg/kg I.P. daily for 7 days): ~56%
reduction of number of human alpha-synuclein positive neurons ([2]; cortex): 42%
reduction of number of human alpha-synuclein positive neurons ([2]; striatum): 40%
